A melting point compilation (Tetko et al.)

melting point	Compound
189 to 191 °C	NCc1ccc(N2CCNC(=O)C2)cc1
141 to 143 °C	Nc1ccc(NC(=O)NCC2CCCO2)cc1 (stereo not drawn)
129 to 131 °C	Cn1cnc([N+](=O)[O-])c1Oc1ccc(Br)cc1
139 to 141 °C	c1ccc(Nc2nc3ccccc3s2)cc1
243 to 245 °C	Nc1nnc(CCc2ccccc2)c(=O)n1N
133 to 135 °C	Nc1nonc1-c1cccc(Cl)c1
159 to 161 °C	Cc1ccccc1-n1ncc(C(=O)O)c1N
104 to 106 °C	CC(C)Cn1c(N)c(C(=O)CCl)c(=O)n(C)c1=O
215 to 217 °C	CN1C(=O)CCC(C(N)=O)C1c1cccc(Cl)c1 (stereo not drawn)
139 to 141 °C	O=C(O)C1CCCN1c1ncnc2ccccc12 (stereo not drawn)
164 to 166 °C	NS(=O)(=O)N1CCNCC1
241 to 243 °C	O=[N+]([O-])c1ccc2oc(S)nc2c1
115 to 117 °C	NS(=O)(=O)C1CCNC1 (stereo not drawn)
56 to 58 °C	Cc1ccc(Oc2ccc(N)cn2)cc1C
207 to 209 °C	CC(C)c1c(C(=O)O)cnc2ncnn12
229 to 231 °C	Cc1nccn1-c1cc(C(=O)O)c2ccccc2n1
135 to 137 °C	CC(C)(C)n1cnc(N)n1
347 to 349 °C	Cc1nc(C)c2c(C)c(C(=O)O)sc2n1
163 to 165 °C	Cc1c(C(N)=O)cccc1[N+](=O)[O-]
229 to 231 °C	CC(NC(=O)c1ccc2[nH]ncc2c1)C(=O)O (stereo not drawn)
172 to 174 °C	Nc1nc(-c2ccncc2)cs1
93 to 95 °C	c1ccc(-c2c[nH]c(C3CCCNC3)n2)cc1 (stereo not drawn)

melting point	Compound
59 to 61 °C	CC1CCN(C(=O)c2ccccc2N)CC1
168 to 170 °C	CN1CCc2nc(N)sc2C1
187 to 189 °C	O=C(O)c1cnc(C2CC2)s1
139 to 141 °C	Cc1ccc(F)c(C(=O)O)c1N
254 to 256 °C	CC(C)n1ccc(=O)nc1S
59 to 61 °C	Cc1nn(-c2ccccc2F)c(C)c1N
190 to 192 °C	Cc1nc(-c2ccc(Br)cc2)n[nH]1
114 to 119 °C	O=C1CN(C(=O)CCl)c2ccccc2N1
86 to 88 °C	Nc1ccnn1Cc1cccnc1
130 to 132 °C	O=c1ccc([N+](=O)[O-])cn1CCCl
49 to 51 °C	O=C(c1cccc(F)c1)N1CCCNCC1
128 to 130 °C	N#Cc1cc2c(nc1Cl)CCCC2
200 to 202 °C	Cc1cc(COc2ccc(C(=O)O)cc2Br)no1
58 to 60 °C	CN1CCN(CC(N)c2ccccc2)CC1 (stereo not drawn)
79 to 81 °C	O=C1CCc2ccc(Cl)cc21
44 to 46 °C	Cc1nc(Cl)cc(Cl)n1
116 to 118 °C	COc1ccc(NC(=O)C2(N)CCCC2)cc1OC
204 to 206 °C	Cn1cc(C(=O)NC2CCNCC2)cn1
179 to 181 °C	COCCCNc1c(N)n(CC(C)C)c(=O)[nH]c1=O
226 to 228 °C	Cn1cc(C(=O)O)c(-c2ccc(N)cc2)n1
260 to 262 °C	O=C(O)c1cccc(N2C(=O)CSC2=S)c1

The next lines start with the molecule.

Compound	melting point
CN(C)c1c(F)cc(C(=N)N)cc1F	95 to 97 °C
CC(C)c1cc(NC(=O)CCl)on1	75 to 77 °C
CC(Br)C(=O)C12CC3CC(CC(C3)C1)C2 (stereo not drawn)	86 to 88 °C
Cc1csc2ccc(C#N)cc12	97 to 99 °C
COc1ccc(C(=O)O)cc1S(=O)(=O)NC(C)C	194 to 197 °C
CC1(c2ccc(C(=O)O)cc2)NC(=O)NC1=O (stereo not drawn)	279 to 281 °C
O=C(c1ccccc1)c1nccs1	40 to 42 °C
CC(C)(C)OC(=O)NC(COS(C)(=O)=O)COS(C)(=O)=O	96 to 98 °C
O=C(O)c1cc2ccccc2c(Cl)n1	202 to 204 °C
NC(=O)Nc1ccc(CC(=O)O)cc1	179 to 182 °C
O=S(=O)(Cl)c1ccc(S(=O)(=O)C(F)F)cc1	139 to 141 °C
NC(CCO)c1ccc(F)cc1 (stereo not drawn)	67 to 69 °C
COc1cc(C=O)cc(OC)c1OC(F)F	115 to 117 °C
O=C(O)/C=C/c1ccc(-n2ccnc2)cc1	300 to 302 °C
CCn1cc(C(=O)O)cn1	144 to 146 °C
COc1ccccc1Nc1ccc([N+](=O)[O-])cc1N	149 to 151 °C
O=S(=O)(c1ccc(CBr)cc1)C(F)F	57 to 61 °C
CCOC(=O)c1cnn(-c2ccc(C(=O)O)cc2)c1C(F)(F)F	175 to 177 °C
COc1ccc(C)cc1-c1nn(CC(C)C)cc1C(=O)O	181 to 183 °C
NC(=O)COc1ccc(/C=C/C(=O)O)cc1	295 to 297 °C

Compound	melting point
CCCS(=O)(=O)c1ccc(C(=O)O)cc1	193 to 195 °C
O=C(Nc1ccc(F)cc1)c1ccc2c(c1)OCO2	186 to 188 °C
N#CCc1c[nH]c2cc(Cl)ccc12	99 to 101 °C
CC(C)C(=O)N(C)CC(=O)O	109 to 111 °C
CNS(=O)(=O)c1ccc(NCCOC)c(N)c1	111 to 113 °C
O=C1CC2(CCCC2)CN1	68 to 70 °C
CCCNC(=O)CN(C)C(=O)CCl	212 to 217 °C
CC(C)(C)c1cc(C(=O)O)c(O)c(C(C)(C)C)c1	157 to 162 °C
CN1CCC(n2ncc3cc(Br)cnc32)CC1	120 to 122 °C
N#CCc1ccc(Oc2ccc(N)cn2)cc1	67 to 69 °C
Cc1[nH]c2ccc(C#N)cc2c1C	145 to 147 °C
CC1(C(=O)O)CCCCN1C(=O)c1ccccc1 (stereo not drawn)	187 to 189 °C
Cc1ccc(-c2n[nH]cc2Br)cc1	104 to 106 °C
NNC(=O)COc1ccccc1F	109 to 112 °C
Cc1cc(C)cc(C(=O)CC#N)c1	140 to 142 °C
COC(=O)c1ccc(S(=O)(=O)Cl)c(Cl)c1	64 to 66 °C
O=C(O)CCc1ccccn1	134 to 136 °C
FC(F)(F)Cn1nnnc1S	122 to 124 °C
CCC(Nc1ccccc1)C(=O)O (stereo not drawn)	139 to 141 °C
NS(=O)(=O)Cc1ccon1	106 to 108 °C

Compound	melting point
OCCOc1cc(Cl)ccc1Cl	59 to 61 °C
CC(C)(C)OC(=O)c1cccc(C=O)c1	31 to 33 °C
O=C(O)CCn1ncc(=O)c2ccccc21	130 to 132 °C
O=[N+]([O-])c1cc(S(=O)(=O)Nc2ccccc2)ccc1Cl	87 to 89 °C
COc1ccc(-c2nn(-c3ccccc3)cc2C=CC(=O)O)cc1	238 to 240 °C
Cc1ccc2ncccc2c1Br	44 to 46 °C
O=C(O)c1ccc(OCC(F)(F)F)nn1	143 to 145 °C
CC1(C)Cc2ccccc2C1=O	41 to 43 °C
O=C(O)CC(O)(c1nccn1Cc1ccccc1)C(F)(F)F (stereo not drawn)	152 to 154 °C
O=C1Nc2c(Cl)cc(Br)cc2C1=O	225 to 227 °C
O=C(O)c1cc(S(=O)(=O)Cl)ccc1F	107 to 109 °C
O=C(O)c1cccnc1SCc1ccc(F)cc1	191 to 193 °C
Cc1cc(S(=O)(=O)Cl)cc(C(=O)O)c1C	179 to 181 °C
CCn1c(=O)n(CC(=O)O)c2ccccc21	229 to 231 °C
NC(Cc1ccccn1)=NO	105 to 107 °C
Cc1ccccc1C(=O)C=O	63 to 65 °C
O=C(O)CN1C(=O)COc2cc(Br)ccc21	234 to 236 °C
C=CCOc1ccc(C(F)(F)F)cc1C(=O)O	58 to 60 °C
CNC(=S)NCc1ccco1	74 to 76 °C
O=C(O)c1cc2c(cc1O)OCO2	189 to 191 °C
